# Measured values: patent publication US7825160B2, “(Biphenyl) carboxylic acids and derivatives thereof” (Cellzome Limited, priority 2004, dated 2010)
# pIC50: −log10 of the molar value.
# System: γ-secretase activity
# Assay: Screening for γ-secretase-modulating activity in SKN neuroblastoma cells carrying APP swedish mutant
# Format: cell-based
# Conditions: read-out: IC50 on the γ-secretase activity, Activity range
# Experimental: Screening was carried out using SKN neuroblastoma cells carrying the APP-“swedish mutant” (point mutations at position 595 and 596, numbering based on APP695) grown in DMEM/NUT-mix F12 (HAM) provided by Gibco (cat no. 31330-38) containing 5% Serum/Fe supplemented with 1% non-essential amino acids, 100 U/ml Pen/Strep.
# Cells were grown to near confluency.
# The screening was performed using the assay as described in Citron et al (1997) Nature Medicine 3: 67.
# IC50-Values of Selected Compounds of the Invention on the γ-Secretase Activity.
row,SMILES,pIC50
1,"CC(C)c1ccc(COc2cc(CC(=O)O)cc(-c3ccc(C(F)(F)F)cc3)c2)cc1 [II, [5-(4-Isopropyl-benzyloxy)-4′-trifluoromethyl-biphenyl-3-yl]-acetic acid]",5.00 to 6.00
2,"CS(=O)(=O)c1ccc(COc2cc(CC(=O)O)cc(-c3ccc(C(F)(F)F)cc3)c2)cc1 [IV, [5-(4-Methanesulfonyl-benzyloxy)-4′-trifluoromethyl-biphenyl-3-yl]-acetic acid]",4.00 to 5.00
3,"O=C(O)Cc1cc(OCc2ccc(OC(F)(F)F)cc2)cc(-c2ccc(C(F)(F)F)cc2)c1 [LVII, [5-(4-Trifluoromethoxy-benzyloxy)-4′-trifluoromethyl-biphenyl-3-yl]-acetic acid]",5.00 to 6.00
4,"Cc1ccc(COc2cc(CC(=O)O)cc(-c3ccc(C(F)(F)F)cc3)c2)cc1 [LX, [5-(4-Methyl-benzyloxy)-4′-trifluoromethyl-biphenyl-3-yl]-acetic acid]",5.00 to 6.00
5,"O=C(O)Cc1cc(OCc2ccccc2)cc(-c2ccccc2)c1 [VII, (5-Benzyloxy-biphenyl-3-yl)-acetic acid]",5.00 to 6.00
6,"COc1cccc(-c2cc(CC(=O)O)cc(OCc3ccccc3)c2)c1 [XIV, (5-benzyloxy-3′-methoxy-biphenyl-3-yl)-acetic Acid]",4.00 to 5.00
7,"Cc1cc(COc2cc(CC(=O)O)cc(-c3ccc(C(F)(F)F)cc3)c2)no1 [XLIII, [5-(5-Methyl-isoxazol-3-ylmethoxy)-4′-trifluoromethyl-biphenyl-3-yl]-acetic acid]",4.00 to 5.00
8,"O=C(O)Cc1cc(OCc2cccc(C(F)(F)F)c2)cc(-c2ccc(C(F)(F)F)cc2)c1 [XLIX, [4′-Trifluoromethyl-5-(3-trifluoromethyl-benzyloxy)-biphenyl-3-yl]-acetic acid]",5.00 to 6.00
9,"O=C(O)Cc1cc(OCc2ccc(C(=O)N3CCOCC3)cc2)cc(-c2ccc(C(F)(F)F)cc2)c1 [XLVIII, {5-[4-(Morpholine-4-carbonyl)-benzyloxy]-4′-trifluoromethyl-biphenyl-3-yl}-acetic acid]",4.00 to 5.00
10,"NC(=O)c1cccc(-c2cc(CC(=O)O)cc(OCc3ccccc3)c2)c1 [XV, (5-benzyloxy-3′-carbamoyl-biphenyl-3-yl)-acetic Acid]",4.00 to 5.00
11,"O=C(O)Cc1cc(OCc2ccccc2)cc(-c2cccc(O)c2)c1 [XVI, (5-benzyloxy-3′-hydroxy-biphenyl-3-yl)-acetic Acid]",4.00 to 5.00
12,"O=C(O)Cc1cc(OCc2ccccc2)cc(-c2ccc(F)cc2)c1 [XXII, (5-Benzyloxy-4′-fluoro-biphenyl-3-yl)-acetic acid]",4.00 to 5.00
13,"O=C(O)Cc1cc(OCc2ccccc2)cc(-c2ccc(Cl)cc2)c1 [XXIII, (5-Benzyloxy-4′-chloro-biphenyl-3-yl)-acetic acid]",5.00 to 6.00
14,"O=C(O)Cc1cc(OCc2ccccc2)cc(-c2ccc(O)cc2)c1 [XXV, (5-Benzyloxy-4′-hydroxy-biphenyl-3-yl)-acetic acid]",3.52 to 4.00
15,"O=C(O)Cc1cc(OCc2ccccc2)cc(-c2cc(F)cc(F)c2)c1 [XXVII, (5-Benzyloxy-3′,5′-difluoro-biphenyl-3-yl)-acetic acid]",4.00 to 5.00
16,"CC(C)Oc1cccc(-c2cc(CC(=O)O)cc(OCc3ccccc3)c2)c1 [XXVIII, (5-Benzyloxy-3′-isopropoxy-biphenyl-3-yl)-acetic acid]",4.00 to 5.00
17,"Cc1ccccc1-c1cc(CC(=O)O)cc(OCc2ccccc2)c1 [XXXI, (5-Benzyloxy-2′-methyl-biphenyl-3-yl)-acetic acid]",4.00 to 5.00
18,"Cc1cccc(-c2cc(CC(=O)O)cc(OCc3ccccc3)c2)c1 [XXXII, (5-Benzyloxy-3′-methyl-biphenyl-3-yl)-acetic acid]",4.00 to 5.00
19,"O=C(O)Cc1cc(OCc2ccccc2)cc(-c2cccc(C(F)(F)F)c2)c1 [XXXIII, (5-Benzyloxy-3′-trifluoromethyl-biphenyl-3-yl)-acetic acid]",4.00 to 5.00
20,"O=C(O)Cc1cc(OCc2ccccc2)cc(-c2cccc(Cl)c2)c1 [XXXVII, (5-Benzyloxy-3′-chloro-biphenyl-3-yl)-acetic acid]",3.52 to 4.00
21,"O=C(O)Cc1cc(OCc2ccccc2)cc(-c2cccc(OC(F)(F)F)c2)c1 [XXXVIII, (5-Benzyloxy-3′-trifluoromethoxy-biphenyl-3-yl)-acetic acid]",5.00 to 6.00

# Other lines, results leading:
row,pIC50,SMILES
1,5.00 to 6.00,"O=C(O)Cc1cc(OCc2ccccc2C(F)(F)F)cc(-c2ccc(C(F)(F)F)cc2)c1 [L, [4′-Trifluoromethyl-5-(2-trifluoromethyl-benzyloxy)-biphenyl-3-yl]-acetic acid]"
2,5.00 to 6.00,"O=C(O)Cc1cc(OCCc2ccccc2)cc(-c2ccc(C(F)(F)F)cc2)c1 [LI, (5-Phenethyloxy-4′-trifluoromethyl-biphenyl-3-yl)-acetic acid]"
3,3.52 to 4.00,"O=C(O)Cc1cc(OCC2CCCCO2)cc(-c2ccc(C(F)(F)F)cc2)c1 (stereo not shown) [LII, [5-(Tetrahydro-pyran-2-ylmethoxy)-4′-trifluoromethyl-biphenyl-3-yl]-acetic acid]"
4,3.52 to 4.00,"CN(C)C(=O)c1ccc(COc2cc(CC(=O)O)cc(-c3ccc(C(F)(F)F)cc3)c2)cc1 [LIII, [5-(4-Dimethylcarbamoyl-benzyloxy)-4′-trifluoromethyl-biphenyl-3-yl]-acetic acid]"
5,3.52 to 4.00,"CNC(=O)c1ccc(COc2cc(CC(=O)O)cc(-c3ccc(C(F)(F)F)cc3)c2)cc1 [LIV, [5-(4-Methylcarbamoyl-benzyloxy)-4′-trifluoromethyl-biphenyl-3-yl]-acetic acid]"
6,5.00 to 6.00,"O=C(O)Cc1cc(OCc2cccc(Cl)c2)cc(-c2ccc(C(F)(F)F)cc2)c1 [LIX, [5-(3-Chloro-benzyloxy)-4′-trifluoromethyl-biphenyl-3-yl]-acetic acid]"
7,4.00 to 5.00,"O=C(O)Cc1cc(OCc2ccc(C(=O)N3CCCC3)cc2)cc(-c2ccc(C(F)(F)F)cc2)c1 [LV, {5-[4-(Pyrrolidine-1-carbonyl)-benzyloxy]-4′-trifluoromethyl-biphenyl-3-yl}-acetic acid]"
8,4.00 to 5.00,"O=C(O)Cc1cc(OCc2ccc(S(=O)(=O)N3CCOCC3)cc2)cc(-c2ccc(C(F)(F)F)cc2)c1 [LVI, {5-[4-(Morpholine-4-sulfonyl)-benzyloxy]-4′-trifluoromethyl-biphenyl-3-yl}-acetic acid]"
9,5.00 to 6.00,"O=C(O)Cc1cc(OCc2ccccc2Cl)cc(-c2ccc(C(F)(F)F)cc2)c1 [LVIII, [5-(2-Chloro-benzyloxy)-4′-trifluoromethyl-biphenyl-3-yl]-acetic acid]"
10,5.00 to 6.00,"O=C(O)Cc1cc(OCc2ccccc2)cc(-c2cc(C(F)(F)F)cc(C(F)(F)F)c2)c1 [XI, (5-Benzyloxy-3′,5′-bis-trifluoromethyl-biphenyl-3-yl)-acetic acid]"
11,5.00 to 6.00,"O=C(O)Cc1cc(OCc2ccccc2)cc(-c2ccc(Cl)c(Cl)c2)c1 [XII, (5-Benzyloxy-3′,4′-dichloro-biphenyl-3-yl)-acetic acid]"
12,5.00 to 6.00,"O=C(O)Cc1cc(OCc2ccc(Cl)cc2)cc(-c2ccc(C(F)(F)F)cc2)c1 [XLI, [5-(4-Chloro-benzyloxy)-4′-trifluoromethyl-biphenyl-3-yl]-acetic acid]"
13,4.00 to 5.00,"O=C(O)Cc1cc(OCC2CCOCC2)cc(-c2ccc(C(F)(F)F)cc2)c1 [XLV, [5-(Tetrahydro-pyran-4-ylmethoxy)-4′-trifluoromethyl-biphenyl-3-yl]-acetic acid]"
14,4.00 to 5.00,"CS(=O)(=O)c1ccc(-c2cc(CC(=O)O)cc(OCc3ccccc3)c2)cc1 [XVII, (5-benzyloxy-4′-methanesulfonyl-biphenyl-3-yl)-acetic Acid]"
15,4.00 to 5.00,"NS(=O)(=O)c1ccc(-c2cc(CC(=O)O)cc(OCc3ccccc3)c2)cc1 [XVIII, (5-benzyloxy-4′-sulfamoyl-biphenyl-3-yl)-acetic Acid]"
16,3.52 to 4.00,"CC(=O)Nc1ccc(-c2cc(CC(=O)O)cc(OCc3ccccc3)c2)cc1 [XXIV, (4′-Acetylamino-5-benzyloxy-biphenyl-3-yl)-acetic acid]"
17,4.00 to 5.00,"COc1ccc(-c2cc(CC(=O)O)cc(OCc3ccccc3)c2)cc1 [XXIX, (5-Benzyloxy-4′-methoxy-biphenyl-3-yl)-acetic acid]"
18,4.00 to 5.00,"CC(C)Oc1ccc(-c2cc(CC(=O)O)cc(OCc3ccccc3)c2)cc1 [XXVI, (5-Benzyloxy-4′-isopropoxy-biphenyl-3-yl)-acetic acid]"
19,4.00 to 5.00,"COc1ccccc1-c1cc(CC(=O)O)cc(OCc2ccccc2)c1 [XXX, (5-Benzyloxy-2′-methoxy-biphenyl-3-yl)-acetic acid]"
20,4.00 to 5.00,"O=C(O)Cc1cc(OCc2ccccc2)cc(-c2ccccc2F)c1 [XXXIV, (5-Benzyloxy-2′-fluoro-biphenyl-3-yl)-acetic acid]"
21,4.00 to 5.00,"Cc1ccc(-c2cc(CC(=O)O)cc(OCc3ccccc3)c2)cc1 [XXXV, (5-Benzyloxy-4′-methyl-biphenyl-3-yl)-acetic acid]"
22,4.00 to 5.00,"O=C(O)Cc1cc(OCc2ccccc2)cc(-c2cccc(F)c2)c1 [XXXVI, (5-Benzyloxy-3′-fluoro-biphenyl-3-yl)-acetic acid]"
